Laboratory results taken from patent US5273982A, “Acetic acid derivatives” (Hoffmann-La Roche Inc., priority 1990, dated 1993).

Molecular target: T1, fibrinogen receptor, glycoprotein IIb/IIIa (Homo sapiens, UniProt P05106+P08514)
T1 construct: obtained from Triton X-100 extracts of human blood platelets; from tissue; host or cells: human blood platelets (Triton X-100 extract)
Test: Inhibition of fibrinogen binding to immobilised fibrinogen receptor glycoprotein IIb/IIIa (ELISA)
Conditions: glycoprotein IIb/IIIa from human blood platelets, bound to microtiter plates, read-out: IC50 (concentration required to inhibit the binding of fibrinogen to the immobilised receptor by 50%)
Excerpt: The inhibition of fibrinogen […] on the fibrinogen receptor, glycoprotein IIb/IIIa, can be detected as follows:
Glycoprotein IIb/IIIa is obtained from Triton X-100 extracts of human blood platelets and purified by lectin affinity chromatography (Analytical Biochemistry 151, 1985, 169-177) and chromatography on an Arg-Gly-Asp-Ser affinity column (Science 231, 1986, 1559-62). The receptor protein thus obtained is bound to microtiter plates. The specific binding of fibrinogen to the immobilized receptor is determined with the aid of an ELISA system ("enzyme-linked immunosorbent assay"). The IC50 values below correspond to the concentration of the test substance which is required in order to inhibit the binding of fibrinogen to the immobilised receptor by 50%: […]

T1 sequence (P08514 32-887 limits assumed): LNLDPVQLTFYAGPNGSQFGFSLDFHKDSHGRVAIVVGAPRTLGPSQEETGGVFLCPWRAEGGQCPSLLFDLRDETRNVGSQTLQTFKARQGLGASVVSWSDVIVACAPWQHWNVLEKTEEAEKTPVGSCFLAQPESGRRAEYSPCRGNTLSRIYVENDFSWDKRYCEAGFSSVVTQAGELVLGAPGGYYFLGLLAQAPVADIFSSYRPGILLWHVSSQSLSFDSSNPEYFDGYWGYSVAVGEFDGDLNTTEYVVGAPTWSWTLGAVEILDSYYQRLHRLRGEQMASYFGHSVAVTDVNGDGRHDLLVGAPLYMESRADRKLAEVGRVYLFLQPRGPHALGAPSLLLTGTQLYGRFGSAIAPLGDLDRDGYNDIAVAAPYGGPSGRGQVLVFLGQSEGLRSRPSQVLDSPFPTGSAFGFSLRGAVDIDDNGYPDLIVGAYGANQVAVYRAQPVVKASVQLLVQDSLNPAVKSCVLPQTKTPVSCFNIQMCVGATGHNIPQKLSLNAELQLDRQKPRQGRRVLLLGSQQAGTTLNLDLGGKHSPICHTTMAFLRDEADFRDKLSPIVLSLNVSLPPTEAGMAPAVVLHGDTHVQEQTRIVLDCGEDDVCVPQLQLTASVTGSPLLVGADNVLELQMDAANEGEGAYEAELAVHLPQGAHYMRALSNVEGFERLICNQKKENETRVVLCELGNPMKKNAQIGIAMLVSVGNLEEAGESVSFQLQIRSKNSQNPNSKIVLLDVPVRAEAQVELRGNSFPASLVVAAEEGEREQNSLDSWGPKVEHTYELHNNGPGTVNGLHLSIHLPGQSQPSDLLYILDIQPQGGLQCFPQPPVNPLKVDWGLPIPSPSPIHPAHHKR
T1 sequence (P08514 891-1039 partner limits assumed): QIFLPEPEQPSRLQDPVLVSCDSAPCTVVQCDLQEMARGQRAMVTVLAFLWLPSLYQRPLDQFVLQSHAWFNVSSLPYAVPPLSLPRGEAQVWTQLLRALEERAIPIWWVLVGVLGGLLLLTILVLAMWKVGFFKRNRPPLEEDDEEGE
T1 sequence (P05106 27-788): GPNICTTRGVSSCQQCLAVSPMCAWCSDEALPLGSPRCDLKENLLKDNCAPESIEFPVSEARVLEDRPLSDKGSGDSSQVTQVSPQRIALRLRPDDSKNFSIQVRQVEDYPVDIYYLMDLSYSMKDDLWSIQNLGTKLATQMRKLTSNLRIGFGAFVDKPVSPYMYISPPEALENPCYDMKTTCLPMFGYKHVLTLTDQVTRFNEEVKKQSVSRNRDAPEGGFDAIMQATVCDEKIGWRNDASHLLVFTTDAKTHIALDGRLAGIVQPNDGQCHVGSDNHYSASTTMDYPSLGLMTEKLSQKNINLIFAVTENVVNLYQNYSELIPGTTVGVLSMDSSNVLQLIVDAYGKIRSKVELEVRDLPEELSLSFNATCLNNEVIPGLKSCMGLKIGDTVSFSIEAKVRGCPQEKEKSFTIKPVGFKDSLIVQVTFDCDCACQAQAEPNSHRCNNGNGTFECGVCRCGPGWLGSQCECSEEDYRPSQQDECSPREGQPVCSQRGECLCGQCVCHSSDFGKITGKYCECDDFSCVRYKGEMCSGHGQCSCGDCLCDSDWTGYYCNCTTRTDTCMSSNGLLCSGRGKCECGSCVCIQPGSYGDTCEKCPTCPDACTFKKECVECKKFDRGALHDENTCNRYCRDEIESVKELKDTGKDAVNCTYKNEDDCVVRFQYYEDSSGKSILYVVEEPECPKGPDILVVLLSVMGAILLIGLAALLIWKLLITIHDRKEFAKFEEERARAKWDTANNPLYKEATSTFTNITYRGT

CC(C)[C@H](NC(=O)[C@H](CC(=O)O)NC(=O)CCCNC(=O)c1ccc(C(=N)N)cc1)C(=O)O [Example 6, N-[N-[4-(p-amidinobenzamido)butyryl]-L-α-aspartyl]-L-valine] was tested. Which IC50 did it give?
Its IC50 is 10 nM.

For CC(C)C[C@H](NC(=O)[C@H](CC(=O)O)NC(=O)CCNC(=O)c1ccc(C(=N)N)cc1)C(=O)OC(C)C [Example 18, N-[N-[N-(p-amidino-benzoyl)-β-alanyl]-L-α-aspartyl]-L-leucine isopropyl ester], which IC50 is on record?
Its IC50 is 10 nM.

For N=C(N)c1ccc(CC(=O)NCCC(=O)N[C@@H](CC(=O)O)C(=O)N[C@@H](Cc2ccccc2)C(=O)O)cc1 [Example 3, N-[N-[N-(p-amidinophenylacetyl)-β-alanyl]-L-α-aspartyl]-3-phenyl-L-alanine], which IC50 is on record?
Its IC50 is 45 nM.

N=C(N)c1ccc(CCNC(=O)CC(=O)N[C@@H](CC(=O)O)C(=O)N[C@@H](Cc2ccccc2)C(=O)O)cc1 [Example 5, N-[N-[(p-amidinophenethylcarbamoyl)acetyl]-L-α-aspartyl]-3-phenyl-L-alanine] was tested. Which IC50 did it give?
The IC50 was 10 nM.

CC(C)[C@H](NC(=O)[C@H](CC(=O)O)NC(=O)CCNC(=O)c1ccc(C(=N)N)cc1)C(=O)O [Example 38, N-[N-[N-(p-amidinobenzoyl)-β-alanyl]-L-α-aspartyl]-L-valine] was tested. Which IC50 did it give?
The IC50 was 3.6 nM.

How did the IC50 turn out when N=C(N)c1ccc(NC(=O)CCCC(=O)N[C@@H](CC(=O)O)C(=O)N[C@@H](Cc2ccccc2)C(=O)O)cc1 [Example 4, N-[N-[4-(p-amidinophenylcarbamoyl)butyryl]-L-α-aspartyl]-3-phenyl-L-alanine] was run?
The IC50 was 35 nM.

Which IC50 does the source give for N=C(N)c1ccc(C(=O)N2CCCC(C(=O)NCCC(=O)O)C2)cc1 (racemic) [Example 7, rac-N-[[1-(p-amidinobenzoyl)-3-piperi-dinyl]carbonyl]-β-alanine] here?
Its IC50 is 27 nM.

Which IC50 does the source give for CCOC(=O)[C@H](CO)NC(=O)[C@H](CC(=O)O)NC(=O)CCNC(=O)c1ccc(C(=N)N)cc1 [Example 28, N-[N-[N-(p-amidinobenzoyl)-β-alanyl]-L-α-aspartyl]-L-serine ethyl ester] here?
Its IC50 is 5 nM.

With N=C(N)N1CCC(C(=O)NCCC(=O)N[C@@H](CC(=O)O)C(=O)N[C@@H](Cc2ccccc2)C(=O)O)CC1 [Example 2, N-[N-[N-(1-amidino-4-piperidinylcarbonyl)-β-alanyl]-L-α-aspartyl]-3-phenyl-L-alanine] as the compound, how does the IC50 read?
Its IC50 is 130 nM.

Which IC50 does the source give for N=C(N)c1ccc(C(=O)NCCC(=O)NCCC(=O)O)cc1 [Example 9, N-[N-(p-amidino-benzoyl)-β-alanyl]-β-alanine] here?
Its IC50 is 5 nM.

N=C(N)c1ccc(C(=O)NCCCCC(=O)N[C@@H](CC(=O)O)C(=O)N[C@@H](Cc2ccccc2)C(=O)O)cc1 [Example 11, N-[N-[5-(p-amidinobenzamido)valeryl]-L-α-aspartyl]-3-phenyl-L-alanine] was tested. Which IC50 did it give?
The IC50 was 2.5 nM.

With N=C(N)c1ccc(C(=O)NCCCC(=O)NCCC(=O)O)cc1 [Example 8, N-[4-(p-amidinobenzamido)butyryl]-β-alanine] as the compound, how does the IC50 read?
Its IC50 is 100 nM.

Which IC50 does the source give for N=C(N)c1ccc(C(=O)NCCC(=O)N[C@@H](CC(=O)O)C(=O)N[C@@H](Cc2ccc(O)cc2)C(=O)O)cc1 [Example 39] here?
The IC50 was 1.2 nM.

N=C(N)c1ccc(C(=O)NC(CC(=O)NCCC(=O)O)c2ccccc2)cc1 (racemic) [Example 10, N-[(DL)-N-(p-amidinobenzoyl)-3-phenyl-β-alanyl]-β-alanine] was tested. Which IC50 did it give?
Its IC50 is 22 nM.

With CC(C)COC(=O)[C@H](CC(=O)O)NC(=O)CCCCNC(=O)c1ccc(C(=N)N)cc1 [Example 25, isobutyl N-[5-(p-amidinobenzamido)valeryl]-L-α-aspartate] as the compound, how does the IC50 read?
The IC50 was 6.7 nM.

With N=C(N)c1ccc(C(=O)N2CC[C@@H](C(=O)N[C@@H](CC(=O)O)C(=O)N[C@@H](Cc3ccccc3)C(=O)O)C2)cc1 [Example 31, N-[N-[[(R)-1-(p-amidinobenzoyl)-3-pyrrolidinyl]carbonyl]-L-α-aspartyl]-3-phenyl-L-alanine] as the compound, how does the IC50 read?
Its IC50 is 12.8 nM.

How did the IC50 turn out when N=C(N)c1ccc(C(=O)NCCC(=O)N[C@@H](CC(=O)O)C(=O)N[C@@H](Cc2ccccc2)C(=O)O)cc1 [Example 1, N-[N-[N-(p-amidinobenzoyl)-β-alanyl]-L-α-aspartyl]-3-phenyl-L-alanine] was run?
Its IC50 is 0.3 nM.
